For 29 compounds, EC50 results are on record in patent US11026958B2, “Substituted 6-membered aryl or heteroaryl allosteric modulators of nicotinic acetylcholine receptors” (Merck Sharp & Dohme Corp., priority 2016, dated 2021).

Where two headings read alike, the source gives them in different places.

This assay deals with human α7 nAChR (Homo sapiens (Human), UniProt P36544). Nature of the assay: Automated patch-clamp electrophysiology functional assay (Assay A), IonFlux HT. The class given is cell-based. The following applies: HEK cell line stably expressing human RIC-3 and human α7, whole-cell population patch, 40 μM acetylcholine. How it is done:
The α7 nAChR positive allosteric modulator (PAM) activity of the present compounds may be tested using assays known in the art. The α7 nAChR PAMs described herein have activities in an automated patch-clamp electrophysiology functional assay as described in the examples. The assay was performed using the IonFlux HT in a whole-cell, population patch configuration. See Golden et al. Assay Drug Dev. Technol. (2011) 9:608-619. The compounds were assessed for their ability to modulate the function of the human α7 nAChR stably expressed in a HEK cell line both in the presence, and in the absence of the natural α7 agonist acetylcholine. By performing a series of such measurements at different concentrations, the effective concentration of the α7 nAChR PAMs (EC50) was determined. See Spencer et al. Assay Drug Dev. Technol. (2012) 10:313-324.
Automated patch-clamp electrophysiology was performed using the IonFlux HT (Fluxion Biosciences Inc., San Francisco, Calif.) in the whole-cell, population patch configuration. Test compounds were assessed for their ability to modulate the function of the α7 nicotinic acetylcholine receptor both in the presence, and in the absence of the natural α7 agonist acetylcholine. A HEK cell line stably expressing both human RIC-3 and human α7 (PrecisION hnAChR α7/RIC-3, Eurofins Pharma, St. Charles, Mo.) was cultured in 175 cm^2 triple-layer tissue culture flasks to no more than 90% confluency in DMEM/F-12 growth media supplemented with 10% heat-inactivated fetal bovine serum, 1% non-essential amino acids, 0.625 μg/mL Puromycin, and 400 μg/mL Geneticin. Immediately prior to assay, cells were detached by first aspirating growth media, rinsing with Dulbecco's phosphate buffered saline, and then adding 10 mL of Accutase (Innovative Cell Technologies, San Diego, Calif.) to the flask and then incubating at 37° C. for 5 minutes. Detached cells were then recovered by the addition of 40 mL of CHO-serum-free media supplemented with 25 mM HEPES, and rocked gently in a 50 mL conical tube for 20 minutes prior to patch-clamp assay. After recovery, cells were pelleted by centrifugation at 1,000 RPM for 1 minute in a compact bench top centrifuge; recovery media was aspirated and cells were resuspended in external recording solution (150 mM NaCl, 5 mM KCl, 2 mM CaCl2, 1 mM MgCl2, 10 mM HEPES, 12 mM dextrose) to a density of 5.0×10^6 cells/mL. The cell suspension was added to the cell inlet wells on an IonFlux HT population patch plate which had previously been rinsed and primed with deionized H2O. Test compounds were serially diluted in DMSO and then resuspended to the final test concentration in external recording solution, with, or without 40 μM acetylcholine added to the external recording solution; test compounds were then transferred to the IonFlux HT population patch plate. Internal recording solution (110 mM TrisPO4, 28 mM TrisBase, 0.1 mM CaCl2, 2 mM MgCl2, 11 mM EGTA, 4 mM MgATP) was added to the internal recording solution inlet wells on the IonFlux HT patch plate previously loaded with cells and test compounds, and the plate loaded into the IonFlux HT instrument. A protocol was executed on the IonFlux HT to trap the cells, break into the cells, and establish the whole-cell recording configuration; cells were voltage-clamped at a holding potential of −60 mV for the duration of the experiment, all experiments were conducted at room temperature, and the IonFlux HT injection pressure was 8 psi for solution applications. Upon establishing the whole-cell configuration, external recording solution was perfused into the recording chambers for 120 seconds and then 40 μM acetylcholine was applied for 1 second and immediately washed off with external recording solution for 60 seconds. The 40 μM acetylcholine-evoked α7 current served as the current response to which subsequent test compound effects, in the presence, or in the absence of 40 μM acetylcholine would be quantified relative to. […]
(In general: The patch-clamp technique gives a direct electrical read-out from membranes.)

human α7 nAChR, sequence (P36544 23-502): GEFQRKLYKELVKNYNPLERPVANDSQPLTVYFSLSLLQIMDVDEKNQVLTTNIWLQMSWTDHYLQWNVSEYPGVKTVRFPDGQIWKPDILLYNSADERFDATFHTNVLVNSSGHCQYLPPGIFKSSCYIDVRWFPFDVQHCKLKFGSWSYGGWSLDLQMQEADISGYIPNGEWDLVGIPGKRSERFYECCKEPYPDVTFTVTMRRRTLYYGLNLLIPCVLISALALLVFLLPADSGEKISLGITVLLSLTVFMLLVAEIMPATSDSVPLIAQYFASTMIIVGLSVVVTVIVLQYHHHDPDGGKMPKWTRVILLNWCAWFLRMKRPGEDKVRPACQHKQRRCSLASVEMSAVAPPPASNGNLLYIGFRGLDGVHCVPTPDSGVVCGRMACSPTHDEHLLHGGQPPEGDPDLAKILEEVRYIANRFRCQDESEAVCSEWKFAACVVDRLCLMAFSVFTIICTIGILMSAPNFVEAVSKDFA

For the compound “4-(trans-2-{2-[(2,2-Dimethylpropyl)amino]pyrimidin-4-yl}cyclopropyl)benzenesulfonamide [Example D5]”, the EC50 runs as follows: (read-out: α7 nAChR EC50) 1800 nM; (read-out: α7 nAChR Potency) 500 to 5000 nM.
For “4-(trans-2-{2-[(4-Fluorophenyl)amino]pyrimidin-4-yl}cyclopropyl)benzenesulfonamide [Example D8]” the same measures were 3800 nM and 500 to 5000 nM.
For “4-(trans-2-{2-[Methyl(phenyl)amino]pyrimidin-4-yl}cyclopropyl)benzenesulfonamide [Example D6]”, the EC50 (read-out: α7 nAChR Potency) was in the range of 500 to 5000 nM.
The same measure, in the same setting: the same measure for “4-{trans-2-[2-(Benzylamino)pyrimidin-4-yl]cyclopropyl}benzenesulfonamide [Example D3]”: 500 to 5000 nM.
As to “4-{trans-2-[2-(Cyclopentylamino)pyrimidin-4-yl]cyclopropyl}benzenesulfonamide [Example D2]”, the EC50 was 2200 nM (read-out: α7 nAChR EC50) and 500 to 5000 nM (read-out: α7 nAChR Potency).
For “4-{trans-2-[2-(Pyrrolidin-1-yl)pyrimidin-4-yl]cyclopropyl}benzenesulfonamide [Example D7]” the same measures were 900 nM and 500 to 5000 nM.
In the case of `CC(C)c1ccc(C2CC2c2ccc(S(N)(=O)=O)cc2)nc1` (racemic) [Example A6, 4-{trans-2-[5-(Propan-2-yl)pyridin-2-yl]cyclopropyl}benzenesulfonamide], the EC50 is 700 nM (read-out: α7 nAChR EC50) and 500 to 5000 nM (read-out: α7 nAChR Potency).
For `CC(C)c1cccnc1C1CC1c1ccc(S(N)(=O)=O)cc1` (racemic) [Example A7, 4-{trans-2-[3-(Propan-2-yl)pyridin-2-yl]cyclopropyl}benzenesulfonamide] the same measures were 2400 nM and 500 to 5000 nM.
For `NS(=O)(=O)c1ccc([C@@H]2C[C@H]2c2cccc(-n3cccn3)n2)cc1` (racemic) [Example A8, 4-{trans-2-[6-(1H-Pyrazol-1-yl)pyridin-2-yl]cyclopropyl}benzenesulfonamide] the same measures were 3300 nM and 500 to 5000 nM.
For `NS(=O)(=O)c1ccc([C@@H]2C[C@H]2c2cccc(C3CCOCC3)n2)cc1` (racemic) [Example A9, 4-{trans-2-[6-(Tetrahydro-2H-pyran-4-yl)pyridin-2-yl]cyclopropyl}benzenesulfonamide] the same measures were 5600 nM and 5000 to 50000 nM.
Regarding `CC(C)c1cccc(C2CC2c2ccc(S(N)(=O)=O)cc2)n1` (racemic) [Example A10, 4-{trans-2-[6-(Propan-2-yl)pyridin-2-yl]cyclopropyl}benzenesulfonamide], under “read-out: α7 nAChR Potency”, the EC50 is 500 to 5000 nM.
With `CC(C)c1ccnc(C2CC2c2ccc(S(N)(=O)=O)cc2)c1` (racemic) [Example A11, 4-{trans-2-[4-(Propan-2-yl)pyridin-2-yl]cyclopropyl}benzenesulfonamide], the EC50 is, setting by setting: (read-out: α7 nAChR EC50) 460 nM; (read-out: α7 nAChR Potency) 100 to 500 nM.
For `NS(=O)(=O)c1ccc([C@@H]2C[C@H]2c2cccc(C3CCCC3)n2)cc1` (racemic) [Example A12, 4-[trans-2-(6-Cyclopentylpyridin-2-yl)cyclopropyl]benzenesulfonamide], the EC50 (read-out: α7 nAChR Potency) lay within 100 to 500 nM.
For `NS(=O)(=O)c1ccc([C@@H]2C[C@H]2c2ccc(C3CCCC3)cn2)cc1` (racemic) [Example A13, 4-[trans-2-(5-Cyclopentylpyridin-2-yl)cyclopropyl]benzenesulfonamide], the EC50 is 1500 nM (read-out: α7 nAChR EC50) and 500 to 5000 nM (read-out: α7 nAChR Potency).
For `CC(C)c1ccc(C2CC2c2ccc(S(N)(=O)=O)cc2)nn1` (racemic) [Example B2, 4-{trans-2-[6-(Propan-2-yl)pyridazin-3-yl]cyclopropyl}benzenesulfonamide] the same measures were 8800 nM and 5000 to 50000 nM.
Consider `CC(C)c1cncc(C2CC2c2ccc(S(N)(=O)=O)cc2)n1` (racemic) [Example B3, 4-{trans-2-[6-(Propan-2-yl)pyrazin-2-yl]cyclopropyl}benzenesulfonamide], for which the EC50 (read-out: α7 nAChR Potency) was 500 to 5000 nM.
On the same count and under the same terms, the same measure for `CC(C)c1cnc(C2CC2c2ccc(S(N)(=O)=O)cc2)nc1` (racemic) [Example C2, 4-{trans-2-[5-(Propan-2-yl)pyrimidin-2-yl]cyclopropyl}benzenesulfonamide]: 500 to 5000 nM.
As to `CC(C)c1ccnc(C2CC2c2ccc(S(N)(=O)=O)cc2)n1` (racemic) [Example C3, 4-{trans-2-[4-(Propan-2-yl)pyrimidin-2-yl]cyclopropyl}benzenesulfonamide], the EC50 was 1800 nM (read-out: α7 nAChR EC50) and 500 to 5000 nM (read-out: α7 nAChR Potency).
For `CN(C)c1nccc(C2CC2c2ccc(S(N)(=O)=O)cc2)n1` (racemic) [Example D1, 4-{trans-2-[2-(Dimethylamino)pyrimidin-4-yl]cyclopropyl}benzenesulfonamide] the same measures were 2900 nM and 500 to 5000 nM.
Take `NS(=O)(=O)c1ccc(C2CC2c2ccnc(-c3ccccc3)n2)cc1` (racemic) [Example D9, 4-[trans-2-(2-Phenylpyrimidin-4-yl)cyclopropyl]benzenesulfonamide]: the EC50 (read-out: α7 nAChR Potency) lay within 500 to 5000 nM.
In the case of `NS(=O)(=O)c1ccc(C2CC2c2ccnc(NCCc3ccccc3)n2)cc1` (racemic) [Example D10, 4-(trans-2-{2-[(2-Phenylethyl)amino]pyrimidin-4-yl}cyclopropyl)benzenesulfonamide], the EC50 reads like this: (read-out: α7 nAChR EC50) 1100 nM; (read-out: α7 nAChR Potency) 500 to 5000 nM.
For `NS(=O)(=O)c1ccc(C2CC2c2ccnc(Nc3ccccc3)n2)cc1` (racemic) [Example D11, 4-{trans-2-[2-(Phenylamino)pyrimidin-4-yl]cyclopropyl}benzenesulfonamide] the same measures were 3300 nM and 500 to 5000 nM.
Regarding `CC(C)c1cc(C2CC2c2ccc(S(N)(=O)=O)cc2)ccn1` (racemic) [Example E1, 4-{trans-2-[2-(Propan-2-yl)pyridin-4-yl]cyclopropyl}benzenesulfonamide], for the setting “read-out: α7 nAChR Potency”, the EC50 fell in the range of 500 to 5000 nM.
With `NS(=O)(=O)c1ccc([C@@H]2C[C@H]2c2ccnc(C3CCC3)c2)cc1` (racemic) [Example E3, 4-[trans-2-(2-Cyclobutylpyridin-4-yl)cyclopropyl]benzenesulfonamide], the EC50 runs as follows: (read-out: α7 nAChR EC50) 500 nM; (read-out: α7 nAChR Potency) 100 to 500 nM.
For `NS(=O)(=O)c1ccc([C@@H]2C[C@H]2c2ccc(-n3ccnc3)cc2)cc1` (racemic) [Example F1, 4-{trans-2-[4-(1H-Imidazol-1-yl)phenyl]cyclopropyl}benzenesulfonamide] the same measures were 3700 nM and 500 to 5000 nM.
`NS(=O)(=O)c1ccc(C2CC2c2cccc(-n3cncn3)c2)cc1` (racemic) [Example F2, 4-{trans-2-[3-(1H-1,2,4-Triazol-1-yl)phenyl]cyclopropyl}benzenesulfonamide]: the EC50 is, setting by setting: (read-out: α7 nAChR EC50) 5200 nM; (read-out: α7 nAChR Potency) 5000 to 50000 nM.
Turning to `CC(C)c1ccc(C2CC2c2ccc(S(N)(=O)=O)cc2)cn1` (racemic) [Example G1, 4{-trans-2-[6-(Propan-2-yl)pyridin-3-yl]cyclopropyl}benzenesulfonamide], the EC50 (read-out: α7 nAChR Potency) is 500 to 5000 nM.
`NS(=O)(=O)c1ccc(C2CC2c2cncc(N3CCCC3)c2)cc1` (racemic) [Example G2, 4-{trans-2-[5-(Pyrrolidin-1-yl)pyridin-3-yl]cyclopropyl}benzenesulfonamide]: the EC50 (read-out: α7 nAChR EC50) turned out to be 3200 nM and the EC50 (read-out: α7 nAChR Potency) lay in the range of 500 to 5000 nM.
For `NS(=O)(=O)c1ccc([C@@H]2C[C@H]2c2ccc(-n3cccn3)nc2)cc1` (racemic) [Example G3, 4-{trans-2-[6-(1H-Pyrazol-1-yl)pyridin-3-yl]cyclopropyl}benzenesulfonamide] the same measures were 870 nM and 500 to 5000 nM.
